Experiments:
[1] = 32-week three-arm HIV trial: body weight; type: in vivo, human
From the text: (§1) All participants were antiretroviral drug naive.
(§2) Laboratory abnormalities were graded.

CD4 cells = assay: 32-week three-arm trial in HIV-infected individuals: CD4 cell counts; type: in vivo, human; conditions: for Change in CD4 cell counts from baseline: OT analysis
From the text: as §1, §2

zidovudine (AZT), lamividine (3TC), and efavirenz (EFV) [AZT/3TC/EFV]
Body weight After ([1]; after therapy): 65.6 | Mean values for baseline body weight ([1]; baseline, mean ± SD): 64.2 ± 8.9 kg | Body weight Before ([1]; before therapy): 64.2 | Mean weight values at the end of study ([1]; end of study): 65.6 ± 7.3 kg | Average weight gain ([1]; week 32): 1.4 kg | Change in CD4 cell counts from baseline (CD4 cells; 12 weeks of treatment): +122 cells/mm^3 | Change in CD4 cell counts from baseline (CD4 cells; 20 weeks): +108 cells/mm^3 | Change in CD4 cell counts from baseline (CD4 cells; 32 weeks): +102 cells/mm^3 | CD4 counts After (CD4 cells; after therapy): 463 | CD4 counts Before (CD4 cells; before therapy (baseline)): 361

— patent publication US7964221B2, “Composition and methods of use of an immunomodulator” (priority 2006, dated 2011)
